Source: patent US10654852B2, “Antibiotics and methods of using same” (THE BROAD INSTITUTE, INC., priority 2016, dated 2020)
In brackets after ≈: the same amount, converted by molar mass.

Tests used:
[1] = test system: Escherichia coli ATCC-BAA-2340; test: MIC (50% NHS); type: cell-based; settings: ATCCBAA2340; Escherichia coli ATCC-BAA-2340, 50% NHS
in vivo = test: in vivo; design: species or system mice; settings: mouse, iv, 10 mg/kg; for half-life: T1/2
Experimental: Compounds were tested in a pharmacokinetic (“PK”) study to determine the T1/2 of test compounds in mice. The PK study was performed at an approved contract research organization. Each test compound was dissolved in a vehicle to make a test antibiotic composition. The vehicle may be, for example, a water or a 5% solutol in saline solution Administration to each mouse is performed via intravenous (IV) cannulation of the tail vein. Blood is collected over K2-EDTA anticoagulant from the submandibular or sapheneous vein at predetermined time points. Following collection, the blood samples are stored at −70° C. until analysis by LC-MS and comparison to a standard calibration curve results in the T1/2 for each compound. The blood concentration of test compounds was measured at various times following 10 mg/kg (mouse) intravenous (IV) administration of each tested compound. […] The T1/2 for compound 17 was 34.2 hours, for compound 23 was 22.0 hours, and for compound 24 was 22.5 hours.

[2] = test system: Pseudomonas aeruginosa ATCC-BAA-47 (PAO1); test: MIC (50% NHS); type: cell-based
[3] = test system: Escherichia coli ATC-25922; test: MIC, broth microdilution; type: cell-based; settings: ATC25922
From the text: As used herein, the term “MIC” refers to minimum inhibitory concentrations. Minimum inhibitory concentrations may be determined by broth microdilution according to the Clinical and Laboratory Standards Institute guidelines (see, e.g., […]-A8. Methods for dilution antimicrobial susceptibility tests for bacteria that grow aerobically: approved standard, 8th Ed.; […] One example for measuring minimum inhibitory concentrations may be found in Reck et al., 2012, J. Med. Chem. 55:6916-6933, the disclosure of which is incorporated by reference. Inoculants may be incubated on blood agar plates for 18 to 24 hours. Incubation may occur at a temperature from about 35° C. to about 37° C. […] In serum supplemented experiments, the testing medium (e.g., DMSO solution) and human serum may be mixed. The ratio of testing medium to human serum may be 1:1 (vol:vol). Plates may be read by spectrophotometry at 620 nm. Unless indicated otherwise, all inhibitory concentrations recited in the specification relate to MICs. The MIC tests were based on broth microdilution method in CLSI-M7. […] Solutions of varying concentrations of DMSO were prepared in wells of a v-bottom 96-well plate (Axygen-WIPP02280). A multi-pipette was used to perform serial dilutions as necessary. From well to well, the drug concentrations were 6.4, 3.2, 1.6, 0.8, 0.4, 0.2, 0.1, 0.05, 0.025, 0.0125, 0.00625 and 0 mg/ml in DMSO. For extremely potent antibiotic, the starting concentrations were adjusted accordingly. This was the drug mother plate. Daughter plates were prepared by placing 98 μl of a testing medium into each well of a u-bottom 96-well plate (Costar 3788). An aliquot of each 2 μl solution from each well of the mother plate was then transferred into the corresponding wells of the daughter plate using a multi-pipette work station (CyBi®-SELMA). Testing media were selected based on CLSI-M7, M11 and […]. Cation adjusted Mueller Hinton Broth (CA-MHB-212322) was the testing medium for majority of bacterial species. […] The MIC values were determined and based on the standards of CLSI methods M7-A7, broth microdilution method. […]

[4] = test system: Enterobacter cloacae ATCC-222; test: MIC (50% NHS); type: cell-based; settings: ATCC222; Enterobacter cloacae ATCC-222, 50% NHS
[5] = test system: Enterococcus faecalis ATCC-29212; test: MIC (50% NHS); type: cell-based; settings: ATCC29212; Enterococcus faecalis ATCC-29212, 50% NHS
[6] = Plasma protein binding (PPB) assay; type: in vitro ADME; settings: % of free compound
Experimental: The activity profiles of compounds 17, 23, and 24 were assessed by various in vitro measurements. The minimum inhibitory concentration (MIC), MIC in the presence of normal human serum (NHS), microsome CLint, the % of free compounds following a plasma protein biding (PPB) assay, and the concentration of drug where the human-ether-à-go-go-related gene (hERG gene) channel block is halved (IC50(hERG)) were measured using standard in vitro protocols for compounds 17, 23, and 24. Unless otherwise indicated, measurements (e.g., microsomal clearance) were performed using a standard microsomal stability assay using LC/MS/MS techniques.

[7] = test system: Escherichia coli NCTC-13476; test: MIC (50% NHS); type: cell-based; settings: NCTC13476; Escherichia coli NCTC-13476, 50% NHS

CN1CC2CN(C(=O)Nc3cc(F)cc(F)c3)CC(C1)C2(O)c1ccc(-c2ccc(CN)cc2C#N)cc1 [Compound 23, (1R,5S,9r)-9-(4′-(aminomethyl)-2′-cyano-[1,1′-biphenyl]-4-yl)-N-(3,5-difluorophenyl)-9-hydroxy-7-methyl-3,7-diazabicyclo[3.3.1]nonane-3-carboxamide]
MIC [1]: 0.25 µg/mL (≈ 0.483 µM) | clearance (in vivo): 9.78 mL/min/kg | half-life (in vivo): 22 h | MIC [2]: 2 µg/mL (≈ 3.86 µM) | MIC [3]: 2 µg/mL (≈ 3.86 µM) | MIC [4]: 0.5 µg/mL (≈ 0.966 µM) | MIC [5]: 0.5 µg/mL (≈ 0.966 µM) | fraction unbound [6]: 0.27 | MIC [7]: 2 µg/mL (≈ 3.86 µM)

CN1CC2CN(C(=O)Nc3cc(F)cc(F)c3)CC(C1)C2(O)c1ccc(-c2ccc(CN)cc2C#N)cn1 [Compound 24, (1R,5S,9r)-9-(5-(4-(aminomethyl)-2-cyanophenyl)pyridin-2-yl)-N-(3,5-difluorophenyl)-9-hydroxy-7-methyl-3,7-diazabicyclo[3.3.1]nonane-3-carboxamide]
MIC [1]: 0.25 µg/mL (≈ 0.482 µM) | clearance (in vivo): 13.9 mL/min/kg | half-life (in vivo): 22.5 h | MIC [2]: 2 µg/mL (≈ 3.86 µM) | MIC [3]: 2 µg/mL (≈ 3.86 µM) | MIC [4]: 0.5 µg/mL (≈ 0.964 µM) | MIC [5]: 1 µg/mL (≈ 1.93 µM) | fraction unbound [6]: 0.38 | MIC [7]: 4 µg/mL (≈ 7.71 µM)

CNCc1ccc(-c2ccc(C3(O)C4CN(C)CC3CN(C(=O)Nc3cc(F)cc(F)c3)C4)nc2)c(C#N)c1 [Compound 17, (1R,5S,9r)-9-(5-(2-cyano-4-((methylamino)methyl)phenyl)pyridin-2-yl)-N-(3,5-difluorophenyl)-9-hydroxy-7-methyl-3,7-diazabicyclo[3.3.1]nonane-3-carboxamide]
MIC [1]: 0.22 µg/mL (≈ 0.413 µM) | T1/2 (in vivo): 34.2 h | clearance (in vivo): 8.86 mL/min/kg | half-life (in vivo): 34 h | MIC [2]: 1.78 µg/mL (≈ 3.34 µM) | MIC [3]: 4 µg/mL (≈ 7.51 µM) | MIC [4]: 0.45 µg/mL (≈ 0.845 µM) | MIC [5]: 0.45 µg/mL (≈ 0.845 µM) | fraction unbound [6]: 0.45 | MIC [7]: 1.78 µg/mL (≈ 3.34 µM)
